Data published in patent US20020051978A1, “Methods and compositions for the identification, assessment, prevention and therapy of human cancers” (priority 2000, published 2002).
Several values for one entry are separate records, joined by “and”; a condition that tells them apart may be missing. Equal entries are not always repeated. Where two headings read alike, the source gives them in different places.

How the values were obtained:
[1] = system: 60 cancer cell lines (NCI 60 cancer cell line series); test: NCI-DTP in vitro cancer screen, sulforhodamine B (SRB) growth inhibition, 48 hour exposure; assay type: cell-based, human; parameters: key to sensitivity class Ovarian OVCAR-8 CL6005 / sensitivity class Ovarian SK-OV-3 CL6011 / sensitivity class Prostate DU-145 CL11003 / sensitivity class NSCLC NCI-H522 CL1003 / sensitivity class Ovarian IGROV1 CL6010 / sensitivity class Ovarian OVCAR-4 CL6002 / sensitivity class Prostate PC-3(I) CL11001 / sensitivity class Renal A498 CL9013 / sensitivity class Renal SN12C CL9008: sensitivity class: 1 = Low, 2 = Medium, 3 = High; conditions: for sensitivity class NSCLC NCI-H23(I) CL1001: cell line NSCLC NCI-H23(I); for sensitivity class NSCLC NCI-H332M CL1017: cell line NSCLC NCI-H332M; for sensitivity class NSCLC NCI-H460 CL1021: cell line NSCLC NCI-H460, CL1021; for sensitivity class Ovarian IGROV1 CL6010: cell line Ovarian IGROV1, CL6010; for sensitivity class Ovarian OVCAR-3 CL6001: cell line Ovarian OVCAR-3, CL6001; for sensitivity class Ovarian OVCAR-4 CL6002: cell line Ovarian OVCAR-4, CL6002; for sensitivity class Ovarian OVCAR-5 CL6003: cell line Ovarian OVCAR-5, CL6003; for sensitivity class Prostate DU-145 CL11003: cell line Prostate DU-145, CL11003
Summary of the method: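 Sixty NCI-DTP cancer lines plated at line-specific densities, dosed on day 1 in duplicate with 5 concentrations at ten-fold intervals. After 48 h exposure, cell mass read by SRB staining; GI50 (50% growth inhibition) taken from dose-response curves and expressed as -log GI50.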

[2] = system: 60 cancer cell lines (NCI 60 cancer cell line series); conditions: cited from earlier work

## CN(Cc1cnc2nc(N)nc(N)c2n1)c1ccc(C(=O)N[C@@H](CCC(=O)O)C(=O)O)cc1 [Methotrexate]
[1]; Breast BT-549 (CL5013)
  classification of cell line as Low(1), Medium(2) or High(3) sensitivity to compound: 1
[1]; Breast HS-578T CL5006
  classification of cell line as Low(1), Medium(2) or High(3) sensitivity to compound: 1
[1]; Breast MCF7/ADRr (CL5002)
  classification of cell line as Low(1), Medium(2) or High(3) sensitivity to compound: 2
[1]; Breast MDA-MB-231 CL5005
  classification of cell line as Low(1), Medium(2) or High(3) sensitivity to compound: 1
[1]; Breast T-47D (CL5014)
  classification of cell line as Low(1), Medium(2) or High(3) sensitivity to compound: 1
[1]; CNS SF-268 CL12014
  classification of cell line as Low(1), Medium(2) or High(3) sensitivity to compound: 2
[1]; CNS SF-295 CL12015
  classification of cell line as Low(1), Medium(2) or High(3) sensitivity to compound: 3
[1]; CNS SF-539 CL12016
  classification of cell line as Low(1), Medium(2) or High(3) sensitivity to compound: 3
[1]; CNS U251(I) CL12009
  classification of cell line as Low(1), Medium(2) or High(3) sensitivity to compound: 2
[1]; Colon COLO-250 CL4010
  classification of cell line as Low(1), Medium(2) or High(3) sensitivity to compound: 2
[1]; Colon HCC-2998 (CL4002)
  classification of cell line as Low(1), Medium(2) or High(3) sensitivity to compound: 2
[1]; Colon HCT-15 CL4015
  classification of cell line as Low(1), Medium(2) or High(3) sensitivity to compound: 3
[1]; Colon HCT-116 (CL4003)
  classification of cell line as Low(1), Medium(2) or High(3) sensitivity to compound: 3
[1]; Colon KM12 (CL4017)
  classification of cell line as Low(1), Medium(2) or High(3) sensitivity to compound: 2
[1]; Leukemia HL-60(I) (CL7008)
  classification of cell line as Low(1), Medium(2) or High(3) sensitivity to compound: 2
[1]; Leukemia K562(I) CL7005
  classification of cell line as Low(1), Medium(2) or High(3) sensitivity to compound: 3
[1]; Leukemia RPMI-8226(I) (CL7010)
  classification of cell line as Low(1), Medium(2) or High(3) sensitivity to compound: 2
[1]; Melanoma LOX IMVI CL10001
  classification of cell line as Low(1), Medium(2) or High(3) sensitivity to compound: 3
[1]; Melanoma SK-MEL-2 (CL10005)
  classification of cell line as Low(1), Medium(2) or High(3) sensitivity to compound: 1
[1]; Melanoma SK-MEL-5 (CL10007)
  classification of cell line as Low(1), Medium(2) or High(3) sensitivity to compound: 2
[1]; Melanoma SK-MEL-28 (CL10008)
  classification of cell line as Low(1), Medium(2) or High(3) sensitivity to compound: 1
[1]; Melanoma UACC-62 (CL10020)
  classification of cell line as Low(1), Medium(2) or High(3) sensitivity to compound: 3
[1]; NSCLC A549/ATCC (CL1004)
  classification of cell line as Low(1), Medium(2) or High(3) sensitivity to compound: 3
[1]; NSCLC EKVX (CL1008)
  classification of cell line as Low(1), Medium(2) or High(3) sensitivity to compound: 1
[1]; NSCLC HOP-62 (CL1026)
  classification of cell line as Low(1), Medium(2) or High(3) sensitivity to compound: 2
[1]; NSCLC HOP-92 (CL1029)
  classification of cell line as Low(1), Medium(2) or High(3) sensitivity to compound: 1
[1]; NSCLC NCI-H226 CL1013
  classification of cell line as Low(1), Medium(2) or High(3) sensitivity to compound: 1
[1]
  sensitivity class NSCLC NCI-H23(I) CL1001: 2
  sensitivity class NSCLC NCI-H332M CL1017: 2
  sensitivity class NSCLC NCI-H460 CL1021: 3
  sensitivity class Ovarian IGROV1 CL6010: 2
  sensitivity class Ovarian OVCAR-3 CL6001: 2
  sensitivity class Ovarian OVCAR-4 CL6002: 1
  sensitivity class Ovarian OVCAR-5 CL6003: 2
  sensitivity class Prostate DU-145 CL11003: 2
[1]; cell line Renal A498, CL9013
  sensitivity class Renal A498 CL9013: 1
[1]; cell line Renal ACHN, CL9023
  sensitivity class Renal ACHN CL9023: 2
[1]; cell line Renal RXF-393, CL9016
  sensitivity class Renal RXF-393 CL9016: 1
[1]; cell line Renal SN12C, CL9008
  sensitivity class Renal SN12C CL9008: 3
[1]; cell line Renal TK10, CL9024
  sensitivity class Renal TK10 CL9024: 1
[1]; cell line Renal UO-31, CL9004
  sensitivity class Renal UO-31 CL9004: 2
[2]; Breast MCF7/ADRr (CL5002)
  -Log (GI50): 7.3 and 7.0
[2]; CNS SF-268 CL12014
  -Log (GI50): 7.5 and 7.3
[2]; Colon COLO-250 CL4010
  -Log (GI50): 6.2 and 6.0
[2]; Colon HCC-2998 (CL4002)
  -Log (GI50): 7.0 and 6.9
[2]; Colon HT29(I) CL4001
  -Log (GI50): 7.7 and 7.5
[2]; Colon KM12 (CL4017)
  -Log (GI50): 7.4 and 7.3
[2]; Colon SW-620 (CL4009)
  -Log (GI50): 7.2 and 7.5
[2]; Leukemia CCRF-CEM(I) (CL7003)
  -Log (GI50): 7.4 and 7.5
[2]; Leukemia HL-60(I) (CL7008)
  -Log (GI50): 7.4
[2]; Leukemia MOLT-4 (CL7006)
  -Log (GI50): 7.6 and 7.5
[2]; Leukemia RPMI-8226(I) (CL7010)
  -Log (GI50): 6.9 and 7.1
[2]; Melanoma M14 (CL10014)
  -Log (GI50): 7.5
[2]; Melanoma MALME-3M CL10002
  -Log (GI50): 5.4 and 5.5
[2]; Melanoma SK-MEL-5 (CL10007)
  -Log (GI50): 7.2 and 7.0
[2]; Melanoma SK-MEL-28 (CL10008)
  -Log (GI50): 5.3 and 5.4
[2]; NSCLC EKVX (CL1008)
  -Log (GI50): 5.0
[2]; NSCLC HOP-92 (CL1029)
  -Log (GI50): 5.1
[2]; NSCLC NCI-H332M CL1017
  -Log (GI50): 6.4 and 6.3
[2]; Prostate DU-145 CL11003
  -Log (GI50): 7.6 and 7.3
[2]; Renal 786-O CL9018
  -Log (GI50): 7.5

## OC[C@H]1O[C@@H](n2cnc3c2N=CNC[C@H]3O)C[C@@H]1O [2′-deoxycoformycin]
[1]
  1 # of Low: 9
  2 # of Medium: 43
  3 # of High: 8
  classification of cell line as Low(1), Medium(2) or High(3) sensitivity to compound: 2 and 1 and 3
  sensitivity class Prostate PC-3(I) CL11001: 1
  sensitivity class Renal 786-O CL9018: 2
  sensitivity class Renal A498 CL9013: 2
  sensitivity class Renal ACHN CL9023: 2
  sensitivity class Renal CAKI-1 CL9015: 3
  sensitivity class Renal RXF-393 CL9016: 3
  sensitivity class Renal SN12C CL9008: 2
  sensitivity class Renal TK10 CL9024: 1
  sensitivity class Renal UO-31 CL9004: 2
  sensitivity class of the cell line to the compound (1 Low, 2 Medium, 3 High): 3 and 2
  sensitivity class NSCLC NCI-H23(I) CL1001: 2
  sensitivity class NSCLC NCI-H332M CL1017: 2
  sensitivity class NSCLC NCI-H460 CL1021: 2
  sensitivity class Ovarian IGROV1 CL6010: 2
  sensitivity class Ovarian OVCAR-3 CL6001: 2
  sensitivity class Ovarian OVCAR-4 CL6002: 2
  sensitivity class Ovarian OVCAR-5 CL6003: 1
  sensitivity class Prostate DU-145 CL11003: 3
[1]; Colon SW-620 (CL4009)
  classification of cell line as Low(1), Medium(2) or High(3) sensitivity to compound: 2
[1]; Leukemia CCRF-CEM(I) (CL7003)
  classification of cell line as Low(1), Medium(2) or High(3) sensitivity to compound: 2
[1]; Leukemia HL-60(I) (CL7008)
  classification of cell line as Low(1), Medium(2) or High(3) sensitivity to compound: 2
[1]; Leukemia K562(I) CL7005
  classification of cell line as Low(1), Medium(2) or High(3) sensitivity to compound: 2
[1]; Leukemia MOLT-4 (CL7006)
  classification of cell line as Low(1), Medium(2) or High(3) sensitivity to compound: 2
[1]; Leukemia RPMI-8226(I) (CL7010)
  classification of cell line as Low(1), Medium(2) or High(3) sensitivity to compound: 2
[1]; Leukemia SR CL7019
  classification of cell line as Low(1), Medium(2) or High(3) sensitivity to compound: 3
[1]; Melanoma LOX IMVI CL10001
  classification of cell line as Low(1), Medium(2) or High(3) sensitivity to compound: 2
[1]; Melanoma M14 (CL10014)
  classification of cell line as Low(1), Medium(2) or High(3) sensitivity to compound: 2
[1]; Melanoma MALME-3M CL10002
  classification of cell line as Low(1), Medium(2) or High(3) sensitivity to compound: 2
[1]; cell line NSCLC NCI-H522, CL1003
  sensitivity class NSCLC NCI-H522 CL1003: 3
[1]; cell line Ovarian OVCAR-8, CL6005
  sensitivity class Ovarian OVCAR-8 CL6005: 2
[1]; cell line Ovarian SK-OV-3, CL6011
  sensitivity class Ovarian SK-OV-3 CL6011: 2
[2]; Colon SW-620 (CL4009)
  -Log (GI50): 3.4
[2]; Leukemia CCRF-CEM(I) (CL7003)
  -Log (GI50): 3.4
[2]; Leukemia HL-60(I) (CL7008)
  -Log (GI50): 3.4
[2]; Leukemia K562(I) CL7005
  -Log (GI50): 3.3
[2]; Leukemia MOLT-4 (CL7006)
  -Log (GI50): 3.4
[2]; Leukemia RPMI-8226(I) (CL7010)
  -Log (GI50): 3.3
[2]; Leukemia SR CL7019
  -Log (GI50): 3.4
[2]; Melanoma LOX IMVI CL10001
  -Log (GI50): 3.3
[2]; Melanoma M14 (CL10014)
  -Log (GI50): 3.4
[2]; Melanoma MALME-3M CL10002
  -Log (GI50): 3.3
[2]
  -Log (GI50): 3.5
